Test results: US11919902B2, “Aryl-bipyridine amine derivatives as phosphatidylinositol phosphate kinase inhibitors” (HiberCell, Inc., priority 2017, dated 2024)

Tests used:
[1] = biological target: T1, PIP4K2A (full length protein, SignalChem) (Homo sapiens, UniProt P48426); experiment: Kinase Assay PIP4K2 A (Sprint); ADP-Glo biochemical assay; conditions: Table 2; compounds listed under IC50 range headings
T1 construct: 4 nM PIP4K2A (full length protein, SignalChem); purchased SignalChem
T1 sequence (P48426 1-406): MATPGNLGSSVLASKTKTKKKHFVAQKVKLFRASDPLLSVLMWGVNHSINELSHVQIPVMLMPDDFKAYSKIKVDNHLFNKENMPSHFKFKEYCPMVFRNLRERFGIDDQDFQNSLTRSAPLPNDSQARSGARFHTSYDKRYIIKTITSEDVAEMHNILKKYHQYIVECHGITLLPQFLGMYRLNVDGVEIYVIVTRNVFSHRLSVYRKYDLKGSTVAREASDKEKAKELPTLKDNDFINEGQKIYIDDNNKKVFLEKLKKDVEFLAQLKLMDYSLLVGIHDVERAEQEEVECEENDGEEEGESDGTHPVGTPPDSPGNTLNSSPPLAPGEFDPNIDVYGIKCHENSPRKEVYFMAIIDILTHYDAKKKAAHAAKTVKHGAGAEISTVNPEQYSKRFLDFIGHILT
Outline: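 ADP-Glo luminescence detected ADP after a 1 h RT reaction started with 60 μM ATP solution. Before that, full-length PIP4K2A (4 nM in mix) with 100 μM PI(5)P diC8 was pre-incubated 15 min with compounds in MOPS buffer pH 7.2, 25 mM MgCl2, 0.005% Tween 20. IC50 derived from % inhibition relative to DMSO over 10 three-fold concentrations.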

GST tagged PIP4KtypeIIB = biological target: T2, GST tagged PIP4KtypeIIB (Homo sapiens, UniProt P78356); experiment: Trans-FI P kinase assay PIP4K2B (PIP4KtypeIIB inhibition assay); format: biochemical; conditions: Table 4; compounds listed under IC50 range headings; 100 uM GTP, 5 nM PIP4KIIB; read-out: Trans-FI P kinase assays: PIP4K2B IC50
T2 construct: made in house; host or cells: E. coli
T2 sequence (P78356 1-416): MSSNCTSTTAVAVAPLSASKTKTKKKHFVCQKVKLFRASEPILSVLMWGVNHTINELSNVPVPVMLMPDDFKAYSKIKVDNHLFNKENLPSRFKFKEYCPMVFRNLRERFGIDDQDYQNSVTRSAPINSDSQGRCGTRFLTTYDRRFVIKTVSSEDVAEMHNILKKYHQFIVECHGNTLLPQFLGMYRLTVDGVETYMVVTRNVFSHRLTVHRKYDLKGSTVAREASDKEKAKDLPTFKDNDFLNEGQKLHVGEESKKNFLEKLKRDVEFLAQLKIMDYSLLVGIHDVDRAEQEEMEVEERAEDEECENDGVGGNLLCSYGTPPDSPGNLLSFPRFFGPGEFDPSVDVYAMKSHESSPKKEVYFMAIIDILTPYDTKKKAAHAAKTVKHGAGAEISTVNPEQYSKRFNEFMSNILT
Outline: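 Transcreener FI fluorescence, converted to GDP by calibration, tracked product from 5 nM E. coli-expressed GST-PIP4KIIB acting on 80 uM PI5P (DOPE carrier) with 100 uM GTP. Compound (top 4.8 uM final, 5% DMSO) was preincubated 1 h at 27 C before the 2 h reaction; IC50 fitted from residual activity.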

GST tagged PIP4KtypeIIA = biological target: T3, GST tagged PIP4KtypeIIA (Homo sapiens, UniProt P48426); experiment: ADP-glo kinase assay PIP4K 2A (PIP4KtypeIIA inhibition assay); format: biochemical; conditions: Table 3; compounds listed under IC50 range headings; 10 uM ATP, 0.5 nM PIP4KIIA
T3 construct: made in house; host or cells: E. coli
T3 sequence (P48426 1-406): T1 sequence (P48426 1-406)
Outline: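 Read-out was ADP-Glo luminescence converted to μM ADP, with IC50 plotted as % of no-inhibitor activity against log concentration. Reactions contained 10 μM ATP, 80 μM PI5P with DOPE carrier, and 0.5 nM GST-tagged PIP4KIIA (E. coli-expressed) in pH 7.3 HEPES/MgCl2 buffer with 5% DMSO. Enzyme and compound (≤4.8 μM) were preincubated 1 h at 27 °C before the 1 h reaction.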

Row | IC50 [1] | IC50 (GST tagged PIP4KtypeIIB) | IC50 (GST tagged PIP4KtypeIIA) | SMILES
1 | < 5000 nM | > 5000 nM | > 5000 nM | CN(CC1CCCNC1)C(=O)c1ccc(-c2cncc(-c3ccncc3)c2)cc1 (stereo not drawn) [Example 180, 4-([3,4′-bipyridin]-5-yl)-N-methyl-N-(piperidin-3-ylmethyl)benzamide]
2 | < 5000 nM | > 5000 nM | > 5000 nM | CN(C[C@H]1CC[C@H](N)CC1)C(=O)c1ccc(-c2cncc(-c3ccncc3)c2)cc1 [Example 181, 4-([3,4′-bipyridin]-5-yl)-N-(((1r,4r)-4-aminocyclohexyl)methyl)-N-methylbenzamide]
3 | 2500 to 5000 nM | > 5000 nM | > 5000 nM | CN(C)C(=O)c1ccc(-c2cc(-c3ccnc(CNC(=O)c4ccc(NC(=O)OC(C)(C)C)cc4)c3)cnc2N)nc1 [Example 187, tert-butyl(4-(((2′-amino-5-(dimethylcarbamoyl)-[2,3′:5′,4″-terpyridin]-2″-yl)methyl)carbamoyl)phenyl)carbamate]
4 | 1000 to 2500 nM | 1000 to 2500 nM | > 5000 nM | CN(C)C(=O)c1ccc(-c2cc(-c3ccnc(CNC(=O)c4ccc(N)cc4)c3)cnc2N)nc1 [Example 188, 2′-amino-2″-((4-aminobenzamido)methyl)-N,N-dimethyl-[2,3′:5′,4″-terpyridine]-5-carboxamide]
5 | 2500 to 5000 nM | > 5000 nM | > 5000 nM | CN(C)C(=O)c1ccc(-c2cc(-c3ccnc(CNC(=O)c4cccc(NC(=O)OC(C)(C)C)c4)c3)cnc2N)nc1 [Example 190, tert-butyl (3-(((2′-amino-5-(dimethylcarbamoyl)-[2,3′:5′,4″-terpyridin]-2″-yl)methyl)carbamoyl)phenyl)carbamate]
6 | 1000 to 2500 nM | 1000 to 2500 nM | > 5000 nM | CN(C)C(=O)c1ccc(-c2cc(-c3ccnc(CNC(=O)c4cccc(N)c4)c3)cnc2N)nc1 [Example 191, 2′-amino-2″-((3-aminobenzamido)methyl)-N,N-dimethyl-[2,3′:5′,4″-terpyridine]-5-carboxamide]
7 | 1000 to 2500 nM | 2500 to 5000 nM | > 5000 nM | CN(C)C(=O)c1ccc(-c2cc(-c3ccnc(CNC(=O)CCc4cccc(NC(=O)OC(C)(C)C)c4)c3)cnc2N)nc1 [Example 193, tert-butyl (3-(3-(((2′-amino-5-(dimethylcarbamoyl)-[2,3′:5′,4″-terpyridin]-2″-yl)methyl)amino)-3-oxopropyl)phenyl)carbamate]
8 | 1000 to 2500 nM | 2500 to 5000 nM | > 5000 nM | CN(C)C(=O)c1ccc(-c2cc(-c3ccnc(CNC(=O)CCc4cccc(N)c4)c3)cnc2N)nc1 [Example 194, 2′-amino-2″-((3-(3-aminophenyl)propanamido)methyl)-N,N-dimethyl-[2,3′:5′,4″-terpyridine]-5-carboxamide]
9 | < 5000 nM | 2500 to 5000 nM | > 5000 nM | CN(C)C/C=C/C(=O)Nc1cccc(CCC(=O)NCc2cc(-c3cnc(N)c(-c4ccc(C(=O)N(C)C)cn4)c3)ccn2)c1 [Example 195, (E)-2′-amino-2″-((3-(3-(4-(dimethylamino)but-2-enamido)phenyl)propanamido)methyl)-N,N-dimethyl-[2,3′:5′,4″-terpyridine]-5-carboxamide]
10 | 100 to 1000 nM | 1000 to 2500 nM | 2500 to 5000 nM | CN(C)C(=O)c1ccc(-c2cc(-c3ccnc4nc[nH]c34)cnc2N)nc1 [Example 213, 2′-amino-5′-(1H-imidazo[4,5-b]pyridin-7-yl)-N,N-dimethyl-[2,3′-bipyridine]-5-carboxamide]
11 | 100 to 1000 nM | 100 to 1000 nM | 100 to 1000 nM | CN(C)C(=O)c1ccc(-c2cc(-c3[nH]nc4ncncc34)cnc2N)nc1 [Example 214, 2′-amino-N,N-dimethyl-5′-(2H-pyrazolo[3,4-d]pyrimidin-3-yl)-[2,3′-bipyridine]-5-carboxamide]
12 | 5 to 100 nM | 100 to 1000 nM | 100 to 1000 nM | O=C1CCCN1c1ccc(-c2cncc(-c3ccnc4[nH]ncc34)c2)cc1 [Example 215, 1-(4-(5-(2H-pyrazolo[3,4-b]pyridin-4-yl)pyridin-3-yl)phenyl)pyrrolidin-2-one]
13 | 100 to 1000 nM | 100 to 1000 nM | 100 to 1000 nM | CN(C)C(=O)c1ccc(-c2cc(-c3cc(Nc4cccc(N)c4)ncn3)cnc2N)nc1 [Example 216, 2′-amino-5′-(6-((3-aminophenyl)amino)pyrimidin-4-yl)-N,N-dimethyl-[2,3′-bipyridine]-5-carboxamide]
14 | 100 to 1000 nM | 100 to 1000 nM | 100 to 1000 nM | CN(C)C(=O)c1ccc(-c2cc(-c3cc(N)ncn3)cnc2N)nc1 [Example 217, 2′-amino-5′-(6-aminopyrimidin-4-yl)-N,N-dimethyl-[2,3′-bipyridine]-5-carboxamide]
15 | 5 to 100 nM | 100 to 1000 nM | 100 to 1000 nM | Cn1ncc2c(-c3cncc(-c4ccc(N5CCCC5=O)cc4)c3)ccnc21 [Example 218, 1-(4-(5-(1-methyl-1H-pyrazolo[3,4-b]pyridin-4-yl)pyridin-3-yl)phenyl)pyrrolidin-2-one]
16 | 100 to 1000 nM | 100 to 1000 nM | 1000 to 2500 nM | CN(C)C(=O)c1ccc(-c2cc(-c3cc(Nc4cccc(NC(=O)c5cccc(N)c5)c4)ncn3)cnc2N)nc1 [Example 219, 2′-amino-5′-(6-((3-(3-aminobenzamido)phenyl)amino)pyrimidin-4-yl)-N,N-dimethyl-[2,3′-bipyridine]-5-carboxamide]
17 | 100 to 1000 nM | 100 to 1000 nM | 100 to 1000 nM | O=C1CCCN1c1ccc(-c2cncc(-c3ccnc4cn[nH]c34)c2)cc1 [Example 220, 1-(4-(5-(2H-pyrazolo[4,3-b]pyridin-7-yl)pyridin-3-yl)phenyl)pyrrolidin-2-one]
18 | < 5000 nM | 1000 to 2500 nM | > 5000 nM | Nc1ncc(-c2ccnc3[nH]c(C(=O)NCc4ccccc4)cc23)cc1-c1ccc(C(=O)NCc2ccccc2)cn1 [Example 221, 4-(2′-amino-5-(benzylcarbamoyl)-[2,3′-bipyridin]-5′-yl)-N-benzyl-1H-pyrrolo[2,3-b]pyridine-2-carboxamide]
19 | 100 to 1000 nM | 100 to 1000 nM | 100 to 1000 nM | O=C1CCCN1c1ccc(-c2cncc(-c3ncnc4n[nH]cc34)c2)cc1 [Example 223, 1-(4-(5-(2H-pyrazolo[3,4-d]pyrimidin-4-yl)pyridin-3-yl)phenyl)pyrrolidin-2-one]
20 | 5 to 100 nM | 10 to 100 nM | 10 to 100 nM | O=C1CCCN1c1ccc(-c2cncc(-c3cc(Cl)nc4n[nH]cc34)c2)cc1 [Example 224, 1-(4-(5-(6-chloro-2H-pyrazolo[3,4-b]pyridin-4-yl)pyridin-3-yl)phenyl)pyrrolidin-2-one]
21 | 100 to 1000 nM | 100 to 1000 nM | 100 to 1000 nM | Cc1nc(-c2cncc(-c3ccc(N4CCCC4=O)cc3)c2)c2cn[nH]c2n1 [Example 225, 1-(4-(5-(6-methyl-2H-pyrazolo[3,4-d]pyrimidin-4-yl)pyridin-3-yl)phenyl)pyrrolidin-2-one]
22 | 5 to 100 nM | 100 to 1000 nM | 100 to 1000 nM | CN(C)C(=O)c1cnc2n[nH]c(-c3cncc(-c4ccc(N5CCCC5=O)cc4)c3)c2c1 [Example 227, N,N-dimethyl-3-(5-(4-(2-oxopyrrolidin-1-yl)phenyl)pyridin-3-yl)-2H-pyrazolo[3,4-b]pyridine-5-carboxamide]
23 | 100 to 1000 nM | 1000 to 2500 nM | 100 to 1000 nM | CN(C)C(=O)c1cnc2c(c1)c(-c1cncc(-c3ccc(N4CCCC4=O)cc3)c1)nn2C [Example 231, N,N,1-trimethyl-3-(5-(4-(2-oxopyrrolidin-1-yl)phenyl)pyridin-3-yl)-1H-pyrazolo[3,4-b]pyridine-5-carboxamide]
